Assay: Test 1: Solubility Test (water as test medium, 37° C., HPLC)
Assay type: physicochemical
Details: for solubility in aqueous methyl cellulose or HPMC solution: test medium e.g. 0.5% aqueous methyl cellulose or HPMC solution, compared with value in water (below 3 μg/mL); for solubility (concentration of Compound A in suspension): 37° C., at the point of 30 minutes in Test 1
Procedure: Each mixture was sampled at several points of time, and each sample was filtered through a membrane filter (Sunprep LCR13-LG, manufactured by Millipore Corp., Japan).
The measurement conditions used for HPLC in Test 1 were as follows: • Detector: Ultraviolet absorptiometer (measurement wavelength: 246 nm) • Column: Stainless steel tube with an inner diameter of 4.6 mm and a length of 25 cm, for 5 μm liquid chromatography, • Column temperature: Fixed temperature at around 40° C. • Mobile phase: Mixture of methanol and water (55:45) • Flow rate: 1 mL/min

Structure (SMILES)	solubility in aqueous methyl cellulose or HPMC solution	solubility (concentration of Compound A in suspension) (water) [µg/mL]	solubility (water, 37 °C, water, thermodynamic from solid, water 37° C., 200 rpm paddles, at 30 minutes after the beginning of the test and after, read-out: concentration of Compound A in solubility test (FIG. 1)) [µg/mL]
COc1cc2[nH]c(=O)c3nn(C(OC(=O)OC(C)C)C(C)C)nc3c(=O)c2cc1OC (single isomer, unassigned) [Comparative Example 2, 2-(1-Isopropoxycarbonyloxy-2-methylpropyl)-7,8-dimethoxy-4(5H), 10-dioxo-2H-1,2,3-triazolo[4,5-c][1]benzazepine]	nearly equal to the above-described value of concentration	2.4	
COc1cc2[nH]c(=O)c3nn(C(OC(=O)OC(C)C)C(C)C)nc3c(=O)c2cc1OC (single isomer, unassigned) [Comparative Example 1, 2-(1-Isopropoxycarbonyloxy-2-methylpropyl)-7,8-dimethoxy-4(5H), 10-dioxo-2H-1,2,3-triazolo[4,5-c][1]benzazepine]	nearly equal to the above-described value of concentration	0.8	< 3

From patent US20070167402A1, “Product of coprecipitation of sparingly soluble substance and water-soluble polymer and process for producing the same” (Meiji Seika Kaisha, Ltd., priority 2003, published 2007)
